The target of this assay is T1, human CaSR (Homo sapiens, UniProt P41180).
T1 sequence (P41180 20-1078): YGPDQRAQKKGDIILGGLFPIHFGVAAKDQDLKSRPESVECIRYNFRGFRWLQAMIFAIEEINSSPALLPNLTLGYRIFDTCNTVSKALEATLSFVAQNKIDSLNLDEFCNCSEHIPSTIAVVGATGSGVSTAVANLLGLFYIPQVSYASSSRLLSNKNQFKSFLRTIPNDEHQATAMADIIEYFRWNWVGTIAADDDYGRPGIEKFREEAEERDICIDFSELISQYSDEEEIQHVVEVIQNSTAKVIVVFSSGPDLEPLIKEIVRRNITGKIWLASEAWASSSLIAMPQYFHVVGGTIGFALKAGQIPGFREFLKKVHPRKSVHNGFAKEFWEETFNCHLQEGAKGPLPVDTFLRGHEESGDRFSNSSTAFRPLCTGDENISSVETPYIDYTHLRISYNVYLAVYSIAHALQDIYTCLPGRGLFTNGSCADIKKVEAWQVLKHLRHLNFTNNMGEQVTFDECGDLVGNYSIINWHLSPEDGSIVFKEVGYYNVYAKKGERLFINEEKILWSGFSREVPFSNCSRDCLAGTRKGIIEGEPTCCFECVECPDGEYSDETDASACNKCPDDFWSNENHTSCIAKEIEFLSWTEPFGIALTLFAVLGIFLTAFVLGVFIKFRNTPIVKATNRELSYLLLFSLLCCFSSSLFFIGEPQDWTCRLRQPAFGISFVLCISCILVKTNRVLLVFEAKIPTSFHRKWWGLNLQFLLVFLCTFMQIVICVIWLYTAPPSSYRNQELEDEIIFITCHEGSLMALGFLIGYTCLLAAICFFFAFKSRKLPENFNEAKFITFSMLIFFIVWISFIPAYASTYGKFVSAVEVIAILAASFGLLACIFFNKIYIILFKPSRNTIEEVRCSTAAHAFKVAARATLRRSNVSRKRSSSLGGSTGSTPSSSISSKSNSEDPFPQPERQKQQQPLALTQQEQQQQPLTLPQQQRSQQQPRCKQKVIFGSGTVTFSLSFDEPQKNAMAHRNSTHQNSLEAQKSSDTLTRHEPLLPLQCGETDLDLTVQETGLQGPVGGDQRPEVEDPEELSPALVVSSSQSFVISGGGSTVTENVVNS
Description: CaSR FLIPR assay (calcilytic activity). Format: cell-based. The arrangement: expressed in transfected cells. Conditions: HEK293 cells stably expressing human recombinant CaSR; 1 mM CaCl2 agonist; Tables 1-24; read-out: FLIPR ASSAY IC50. The procedure:
Procedures for CaSR FLIPR Assay
Calcilytic activity of the compound is measured in HEK293 cells stably expressing human recombinant CaSR (HEK-CaSR) using a FLIPR^TETRA device (Molecular Devices, Sunnyvale, Calif.) according to the manufacturer's directions. […] On the day of the assay, one vial of FLIPR Calcium 4 Assay Kit reagent Component A was equilibrated to room temperature. The content of the Component A vial was diluted by adding 10 ml dilution buffer (2×loading dye). The sample was mixed by vortexing (1-2 minutes) until the contents of the vial dissolved. The Component A vial mixture was diluted with 10 ml dilution buffer. Media was aspirated from the cells and 80 μl of loading buffer was added to each well. Plates were incubated for 1 hour at 37° C. and then placed at room temperature for 10 minutes. A two-stage method of generating 10-point serial dilutions was used. Compound was serially diluted in 100% DMSO (10 point, 3-fold dilution of each compound from 2 mM in 100% DMSO). 3 μl of serially diluted compound was transferred into a second assay microplate that contained 97 μl of TETRA dilution buffer (20 mM HEPES pH7.4, 1×HBSS without Ca and Mg, 0.4 mM CaCl2, 0.4 mM MgSO4, 0.5 mM MgCl2) to create the intermediate dilution plate. After reading the base line, the compounds in 0.5% DMSO in dilution buffer were added to their respective wells as 20 μl aliquots at 6×the final drug concentration. The fluorescence signals were then read. Subsequently, 20 μl of 3.6 mM of CaCl2 agonist (1 mM final concentration) was added to each well. For background, 20 μl of TETRA dilution buffer was added instead. The protocol consisted of a pre-addition read of 10 frames (10×1 frame/sec), a post 1st addition read of 100 frames (60×1 frame/sec, 40×1 frame/3 sec), pause 3 min, a post 2nd addition read of 100 frames (60×1 frame/sec, 40×1 frame/3 sec) on a FLIPR^TETRA Plate Reader.

SMILES strings stand for the structures. pIC50: −log10 of the molar value.

As a reminder, the pIC50 is −log10 of the IC50, conventionally taken in molar units. Consider `CCOC(=O)[C@@H]1[C@H]2Oc3c(C)ccc([C@@H](C)OC[C@H](O)CNC(C)(C)Cc4ccc(SC)c(F)c4)c3[C@H]21` [Example 12-1], for which the negative logarithm of the IC50 (pIC50) is 6.89.

`C[C@@H](OC[C@H](O)CNC(C)(C)Cc1ccc(Cl)cc1F)c1cccc2c1O[C@H]1[C@H](C(=O)O)[C@@H]21` [Example 2-6]: the pIC50 is 6.14.

Take `Cc1ccc([C@@H](C)OC[C@H](O)CNC(C)(C)Cc2ccc3c(c2)CCC3)c2c1O[C@H]1[C@H](C(=O)O)[C@@H]21` [Example 9-6]: the negative logarithm of the IC50 (pIC50) was 7.28.

Consider `Cc1ccc([C@@H](C)OC[C@H](O)CNC2(Cc3ccc4ccccc4c3)CC2)c2c1O[C@H]1[C@H](C(=O)O)[C@@H]21` [Example 9-7], for which the pIC50 is 6.73.

For the compound `Cc1cc(Cl)c([C@@H](C)OC[C@H](O)CNC(C)(C)Cc2ccc3occc3c2)c2c1O[C@@H]1[C@@H](C(=O)O)[C@H]21` [Example 16-2], the negative logarithm of the IC50 (pIC50) is 7.77.

In the case of `Cc1cc(Cl)c([C@@H](C)OC[C@H](O)CNC(C)(C)Cc2ccc3ccccc3c2)c2c1O[C@@H]1[C@@H](C(=O)O)[C@H]21` [Example 16-1], the negative logarithm of the IC50 (pIC50) is 8.05.

Turning to `C[C@@H](OC[C@H](O)CNC(C)(C)Cc1ccc(F)c(F)c1)c1cccc2c1O[C@@H]1[C@@H](C(=O)O)[C@H]21` [Example 1-15], the negative-log IC50 (pIC50) is 5.90.

Consider `Cc1ccc([C@@H](C)OC[C@H](O)CNC(C)(C)Cc2ccc(Cl)c(Cl)c2)c2c1O[C@H]1[C@H](C(=O)O)[C@@H]21` [Example 9-10], for which the negative-log IC50 (pIC50) is 7.38.

On to `Cc1ccc([C@@H](C)OC[C@H](O)CN2CCCC2(C)Cc2ccccc2)c2c1O[C@@H]1[C@@H](C(=O)O)[C@H]21` (stereo partly drawn) [Example 8-18], for which the pIC50 is 5.88.

Consider `COc1ccc(CC(C)(C)NC[C@@H](O)CO[C@H](C)c2ccc(C)c3c2[C@@H]2[C@H](O3)[C@H]2C(=O)O)c(F)c1` [Example 8-14], for which the pIC50 is 7.52.

For the compound `C[C@@H](OC[C@H](O)CNC(C)(C)Cc1ccc2c(c1)CCC2)c1cccc2c1O[C@@H]1[C@@H](C(=O)O)[C@H]21` [Example 1-7], the pIC50 is 6.96.

Turning to `C[C@@H](OC[C@H](O)CNC(C)(C)Cc1ccc2ccccc2c1)c1ccc(F)c2c1C1C(O2)C1C(=O)O` (stereo partly drawn) [Example 17-1], the negative logarithm of the IC50 (pIC50) was 7.59.

As to `Cc1ccc([C@@H](C)OC[C@H](O)CNC(C)(C)Cc2ccc3ccccc3c2)c2c1O[C@@H]1[C@@H](C(=O)O)[C@H]21` [Example 8-1], the pIC50 was 7.85.

On to `C[C@@H](OC[C@H](O)CNC(C)(C)Cc1ccc2ccccc2c1)c1cccc2c1C[C@H]1[C@H](C(=O)O)[C@@H]21` [Example 14-2], for which the negative-log IC50 (pIC50) was 6.82.

On to `Cc1ccc(CC(C)(C)NC[C@@H](O)CO[C@H](C)c2ccc(C)c3c2[C@@H]2[C@H](O3)[C@H]2C(=O)O)cc1F` [Example 8-4], for which the negative-log IC50 (pIC50) was 7.68.

Turning to `Cc1ccc(CC(C)(C)NC[C@@H](O)CO[C@H](C)c2cccc3c2O[C@H]2[C@H](C(=O)O)[C@@H]32)cc1C` [Example 2-4], the negative-log IC50 (pIC50) is 6.42.

As for `C[C@@H](OC[C@H](O)CNC(C)(C)CCCc1ccccc1)c1cccc2c1O[C@@H]1[C@@H](C(=O)O)[C@H]21` [Example 1-14], the pIC50 is 7.42.

Consider `C[C@@H](OC[C@H](O)CNC(C)(C)Cc1ccc2ccccc2c1)c1cc(F)cc2c1O[C@@H]1[C@@H](C(=O)O)[C@H]21` [Example 19-1], for which the negative logarithm of the IC50 (pIC50) was 6.75.

As for `CSc1ccc(CC(C)(C)NC[C@@H](O)CO[C@H](C)c2cccc3c2O[C@@H]2[C@@H](C(=O)O)[C@H]32)cc1F` [Example 1-17], the pIC50 was 6.78.

Consider `Cc1ccc(CC(C)(C)NC[C@@H](O)CO[C@H](C)c2ccc(C)c3c2C2[C@H](O3)[C@H]2C(=O)O)cc1C` (stereo partly drawn) [Example 8-5], for which the pIC50 is 7.74.

On to `C[C@@H](OC[C@H](O)CNC(C)(C)Cc1ccc2c(c1)OCO2)c1cccc2c1O[C@@H]1[C@@H](C(=O)O)[C@H]21` [Example 1-8], for which the pIC50 was 6.49.

Turning to `CSc1ccc(CC(C)(C)NC[C@@H](O)CO[C@H](C)c2cccc3c2O[C@H]2[C@H](C(=O)O)[C@@H]32)cc1F` [Example 2-9], the pIC50 is 6.08.

For the compound `C[C@@H](OC[C@H](O)CNC(C)(C)Cc1ccc2ccccc2c1)c1cccc2c1C[C@@H]1[C@@H](C(=O)O)[C@H]21` [Example 14-1], the pIC50 is 6.57.

For the compound `Cc1ccc([C@@H](C)OC[C@H](O)CNC(C)(C)CC2Cc3ccccc3C2)c2c1O[C@@H]1[C@@H](C(=O)O)[C@H]21` [Example 8-3], the negative logarithm of the IC50 (pIC50) is 7.70.

With `Cc1ccc([C@@H](C)OC[C@H](O)CNC(C)(C)Cc2ccc3ccccc3c2)c2c1O[C@H]1[C@H](C(=O)O)[C@@H]21` [Example 9-1], the pIC50 was 7.66.

With `C[C@@H](OC[C@H](O)CNC(C)(C)Cc1ccc2occc2c1)c1cccc2c1[C@@H]1[C@H](C2)[C@H]1C(=O)O` [Example 13-2], the negative-log IC50 (pIC50) is 7.33.

Regarding `Cc1ccc([C@@H](C)OC[C@H](O)CNC(C)(C)Cc2ccc(Cl)c(F)c2)c2c1O[C@H]1[C@H](C(=O)O)[C@@H]21` [Example 9-2], the pIC50 is 7.11.

Consider `C[C@@H](OC[C@H](O)CNC(C)(C)Cc1ccc2c(c1)OCCO2)c1cccc2c1O[C@@H]1[C@@H](C(=O)O)[C@H]21` [Example 1-10], for which the pIC50 was 6.34.

For `Cc1ccc([C@@H](C)OC[C@H](O)CNC(C)(C)CCOc2ccccc2)c2c1O[C@@H]1[C@@H](C(=O)O)[C@H]21` [Example 8-17], the pIC50 was 7.05.

With `Cc1ccc([C@@H](C)OC[C@H](O)CNC(C)(C)Cc2cccc3ccccc23)c2c1O[C@@H]1[C@@H](C(=O)O)[C@H]21` [Example 8-9], the negative logarithm of the IC50 (pIC50) is 6.92.

Take `Cc1ccc([C@@H](C)OC[C@H](O)CNC(C)(C)Cc2ccc3c(c2)CCC3)c2c1O[C@@H]1[C@@H](C(=O)O)[C@H]21` [Example 8-10]: the negative-log IC50 (pIC50) is 7.82.

As for `C[C@@H](OC[C@H](O)CNC(C)(C)Cc1ccc2c(c1)OCO2)c1cccc2c1[C@@H]1[C@H](O2)[C@H]1C(=O)O` [Example 5-8], the negative-log IC50 (pIC50) was 6.80.

In the case of `Cc1ccc([C@@H](C)OC[C@H](O)CNC(C)(C)Cc2ccc(Cl)cc2Cl)c2c1O[C@H]1[C@H](C(=O)O)[C@@H]21` [Example 9-9], the pIC50 is 7.11.

For the compound `C[C@@H](OC[C@H](O)CNC(C)(C)Cc1ccc([S+](C)[O-])c(F)c1)c1cccc2c1O[C@@H]1[C@@H](C(=O)O)[C@H]21` (stereo partly drawn) [Example 1-18], the pIC50 is below 5.00.

For the compound `CSc1ccc(CC(C)(C)NC[C@@H](O)CO[C@H](C)c2cccc3c2[C@@H]2[C@H](O3)[C@H]2C(=O)O)cc1F` [Example 5-14], the pIC50 is 7.57.

Consider `Cc1ccc([C@@H](C)OC[C@H](O)CNC(C)(C)Cc2c(F)cc(F)cc2F)c2c1O[C@@H]1[C@@H](C(=O)O)[C@H]21` [Example 8-22], for which the pIC50 was 6.68.

For the compound `COc1ccc(CC(C)(C)NC[C@@H](O)CO[C@H](C)c2cccc3c2[C@@H]2[C@H](O3)[C@H]2C(=O)O)c(Cl)c1` [Example 5-16], the pIC50 is 7.42.

Consider `Cc1ccc([C@@H](C)OC[C@H](O)CNC(C)(C)Cc2ccc(F)c(F)c2)c2c1O[C@@H]1[C@@H](C(=O)O)[C@H]21` [Example 8-19], for which the pIC50 is 6.86.

Take `C[C@@H](OC[C@H](O)CNC(C)(C)Cc1ccc2ccccc2c1)c1ccc(Cl)c2c1C1C(O2)C1C(=O)O` (stereo partly drawn) [Example 18-1]: the pIC50 is 7.40.

Values taken from patent US20160311791A1, “NOVEL TRICYCLIC CALCIUM SENSING RECEPTOR ANTOGONISTS FOR THE TREATMENT OF OSTEOPOSOSIS” (MERCK SHARP & DOHME CORP., priority 2013, published 2016).
